ChEMBL document CHEMBL1137551, “Estrogen receptor dependent inhibitors of NF-kappaB transcriptional activation-1 synthesis and biological evaluation of substituted 2-cyanopropanoic acid derivatives: pathway selective inhibitors of NF-kappaB, a potential treatment for rheumatoid arthritis” (J Med Chem, 2007)
Calls of active or inactive are those of the source. No cut-off for these calls is given here.

Tests used:
[1] = (§1) Inhibition of ER dependent NF-kappaB expression in ER expressing HAECT1 cells by luciferase reporter gene assay; format: cell-based; details: Homo sapiens
HAECT1 [2] = assay: (§2) Inhibition of ER dependent creatine kinase expression in ER expressing HAECT1 cells; format: cell-based; details: Homo sapiens
HAECT1 [3] = assay: Inhibition of ER dependent NF-kappaB expression in ER expressing HAECT1 cells at 10 uM by luciferase reporter gene assay relative to E2; format: cell-based; details: Homo sapiens
HAECT1 [4] = assay: as §1; format: cell-based; details: Homo sapiens
[5] = as §2; format: cell-based; details: Homo sapiens
HAECT1 [6] = assay: Inhibition of ER dependent creatine kinase expression in ER expressing HAECT1 cells at 10 uM relative to E2; format: cell-based; details: Homo sapiens
[7] = Inhibition of ER dependent IL6 expression in ER expressing HAECT1 cells; format: cell-based; details: Homo sapiens
HAECT1 [8] = assay: Inhibition of ER dependent IL6 expression in ER expressing HAECT1 cells at 10 uM relative to E2; format: cell-based; details: Homo sapiens
HAECT1 [9] = assay: Inhibition of ER dependent NF-kappaB expression in ER expressing HAECT1 cells at 1 uM by luciferase reporter gene assay; format: cell-based; details: Homo sapiens
Mus musculus [10] = assay: Inhibition of NFkB mediated VCAM gene expression in C57BL/6 mouse at 5 mg/kg/day, po after 5 weeks; format: functional; details: C57BL/6, 840 h
Mus musculus [11] = assay: Inhibition of NFkB mediated MHC gene expression in C57BL/6 mouse at 5 mg/kg/day, po after 5 weeks relative to 17-alpha-ethinyl-17beta-estradiol; format: functional; set-up: scale not given: the % may be the effect or the level left
Rattus norvegicus [12] = assay: Stimulation of uterine wet weight in Sprague-Dawley rat at 2 mg/kg/day; format: functional, organism-based
Mus musculus [13] = assay: Inhibition of NFkB mediated MHC gene expression in C57BL/6 mouse at 5 mg/kg/day, po after 5 weeks; format: functional; details: C57BL/6, 840 h
Mus musculus [14] = assay: Inhibition of NFkB mediated RANTES gene expression in C57BL/6 mouse at 5 mg/kg/day, po after 5 weeks; format: functional; details: C57BL/6, 840 h
Mus musculus [15] = assay: Inhibition of NFkB mediated VCAM gene expression in C57BL/6 mouse at 5 mg/kg/day, po after 5 weeks relative to 17-alpha-ethinyl-17beta-estradiol; format: functional; set-up: scale not given: the % may be the effect or the level left
Mus musculus [16] = assay: Inhibition of NFkB mediated TNFalpha gene expression in C57BL/6 mouse at 5 mg/kg/day, po after 5 weeks relative to 17-alpha-ethinyl-17beta-estradiol; format: functional; set-up: scale not given: the % may be the effect or the level left
Rattus norvegicus [17] = assay: Inhibition of adjuvant-induced arthritis in Lewis rat assessed as improvement in synovial scoring at 0.3 mg/kg/day, po; format: functional; set-up: scale not given: the % may be the effect or the level left
Estrogen receptor beta = Estrogen receptor beta (Homo sapiens, UniProt Q92731); assay: Displacement of [3H]E2 from human ERbeta ligand binding domain
Mus musculus [18] = assay: Inhibition of NFkB mediated TNFalpha gene expression in C57BL/6 mouse at 5 mg/kg/day, po after 5 weeks; format: functional; details: C57BL/6, 840 h
Mus musculus [19] = assay: Inhibition of NFkB mediated RANTES gene expression in C57BL/6 mouse at 5 mg/kg/day, po after 5 weeks relative to 17-alpha-ethinyl-17beta-estradiol; format: functional; set-up: scale not given: the % may be the effect or the level left
Rattus norvegicus [20] = assay: Inhibition of 17-alpha-ethinyl-17beta-estradiol induced uterine wet weight in Sprague-Dawley rat at 2 mg/kg/day; format: functional, organism-based
Estrogen receptor = molecular target: T1, Estrogen receptor (Homo sapiens, UniProt P03372); assay: Displacement of [3H]E2 from human ERalpha ligand binding domain
T1 sequence (P03372 whole entry): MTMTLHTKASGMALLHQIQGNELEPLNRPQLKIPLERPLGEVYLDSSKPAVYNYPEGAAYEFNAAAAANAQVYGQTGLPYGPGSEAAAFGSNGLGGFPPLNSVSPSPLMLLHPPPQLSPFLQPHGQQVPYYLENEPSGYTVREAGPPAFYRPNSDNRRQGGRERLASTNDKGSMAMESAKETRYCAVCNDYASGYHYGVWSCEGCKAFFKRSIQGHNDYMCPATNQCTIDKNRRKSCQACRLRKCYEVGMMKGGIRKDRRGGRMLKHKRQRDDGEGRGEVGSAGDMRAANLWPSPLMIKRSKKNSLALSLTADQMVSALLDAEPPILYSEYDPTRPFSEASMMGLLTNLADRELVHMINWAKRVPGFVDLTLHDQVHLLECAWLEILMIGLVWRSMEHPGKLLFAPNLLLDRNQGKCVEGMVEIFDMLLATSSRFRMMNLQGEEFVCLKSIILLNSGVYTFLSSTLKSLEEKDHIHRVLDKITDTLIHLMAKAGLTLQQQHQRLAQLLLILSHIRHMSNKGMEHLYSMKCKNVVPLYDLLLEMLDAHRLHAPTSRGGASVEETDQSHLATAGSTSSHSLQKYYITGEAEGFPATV

Mus musculus [21] = assay: Increase in uterine wet weight in C57BL/6 mouse at 5 mg/kg/day, po after 5 days relative to control; format: functional
Plasma [22] = assay: Stability in mouse plasma assessed as hydrolysis after 24 hr at 37 deg C; format: ADME, cell-free; set-up: scale not given: the % may be the effect or the level left
Plasma [23] = assay: Stability in mouse plasma assessed as hydrolysis after 4 hr at 37 deg C; format: ADME, cell-free; set-up: scale not given: the % may be the effect or the level left

Sequence of Estrogen receptor beta (Q92731 whole entry, the tested form may be a part): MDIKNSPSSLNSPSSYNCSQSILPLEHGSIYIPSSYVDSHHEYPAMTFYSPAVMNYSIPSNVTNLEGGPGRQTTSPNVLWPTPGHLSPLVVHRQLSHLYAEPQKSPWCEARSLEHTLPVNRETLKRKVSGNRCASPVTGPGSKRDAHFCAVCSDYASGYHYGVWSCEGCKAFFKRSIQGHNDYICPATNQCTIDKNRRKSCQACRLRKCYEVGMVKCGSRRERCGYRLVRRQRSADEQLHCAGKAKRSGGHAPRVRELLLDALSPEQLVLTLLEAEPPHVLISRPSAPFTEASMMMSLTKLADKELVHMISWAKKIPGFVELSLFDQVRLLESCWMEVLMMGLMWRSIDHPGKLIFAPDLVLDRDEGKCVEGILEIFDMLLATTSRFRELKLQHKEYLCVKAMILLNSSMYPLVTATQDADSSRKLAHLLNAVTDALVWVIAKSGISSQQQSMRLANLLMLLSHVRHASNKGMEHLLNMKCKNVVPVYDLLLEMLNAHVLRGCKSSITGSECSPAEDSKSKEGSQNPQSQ

| IC50 [1] | EC50 [5] | Compound | Activity (HAECT1 [2]) | Efficacy (HAECT1 [3]) | Efficacy (HAECT1 [6]) | also measured |
| --- | --- | --- | --- | --- | --- | --- |
| 550 nM |  | CCOC(=O)C(C#N)C(c1ccc(C)cc1)c1cccc2ccccc12 (configuration not stated) | inactive | 64% |  |  |
|  |  | CCOC(=O)C(C#N)C(c1cccc(OC)c1)c1cccc2ccccc12 (configuration not stated) | inactive |  |  | Activity (HAECT1 [4]): inactive |
| 139 nM | 233 nM | CCOC(=O)C(C#N)C(c1ccccc1OC)c1cccc2ccccc12 (configuration not stated) |  | 90% | 32% |  |
|  |  | N#CC(C(=O)O)C(c1cccc2ccccc12)c1cccc2ccccc12 (configuration not stated) | inactive |  |  | Activity (HAECT1 [4]): inactive |
| 105 nM | 98 nM | CCOC(=O)C(C)(C#N)C(c1ccccc1OC)c1cccc2ccccc12 (configuration not stated) |  | 110% | 33% |  |
| 206 nM |  | CCOC(=O)C(C)(C#N)C(c1cccc2ccccc12)c1cccc2ccccc12 (configuration not stated) | inactive | 96% |  |  |
| 550 nM |  | CCOC(=O)C(C#N)C(c1cccc2ccccc12)c1cccc2ccccc12 (configuration not stated) | inactive | 96% |  | IC50 [7]: 185 nM; Efficacy (HAECT1 [8]): 91% |
| 327 nM |  | CCOC(=O)C(C)(C#N)C(c1ccccc1SC)c1cccc2ccccc12 (configuration not stated) | inactive | 65% |  |  |
|  |  | CCOC(=O)C(C#N)C(c1ccccc1F)c1cccc2ccccc12 (configuration not stated) |  | 32% |  | inhibition (HAECT1 [9]): 19% |
|  |  | CCOC(=O)C(C#N)C(c1cccc2ccccc12)c1ccnc2ccccc12 (configuration not stated) |  | 4% |  | inhibition (HAECT1 [9]): 3% |
| 1900 nM |  | N#CC(C(N)=O)C(c1cccc2ccccc12)c1cccc2ccccc12 (configuration not stated) | inactive | 55% |  |  |
| 110 nM | 240 nM | CCOC(=O)C(C#N)C(c1ccccc1C(F)(F)F)c1cccc2ccccc12 (configuration not stated) |  | 106% | 24% |  |
| 792 nM |  | CCOC(=O)C(C#N)C(c1ccccc1)c1cccc2ccccc12 (configuration not stated) | inactive | 96% |  |  |
| 389 nM |  | CCOC(=O)C(C#N)C(c1ccc2ccccc2c1)c1cccc2ccccc12 (configuration not stated) | inactive | 76% |  |  |
| 125 nM | 259 nM | COc1ccccc1[C@H](c1cccc2ccccc12)[C@@](C)(C#N)C(=O)N1CCCCC1 |  | 92% | 37% |  |
| 268 nM |  | CCOC(=O)C(C)(C#N)C(c1ccccc1[N+](=O)[O-])c1cccc2ccccc12 (configuration not stated) | inactive | 112% |  |  |
| 118 nM | 197 nM | CCOC(=O)C(C#N)C(c1ccccc1SC)c1cccc2ccccc12 (configuration not stated) |  | 102% | 24% |  |
| 122 nM |  | COc1ccccc1[C@H](c1cccc2ccccc12)[C@@](C)(C#N)C(=O)N1CCC(c2cccc(C(F)(F)F)c2)CC1 | inactive | 94% |  | inhibition in vivo at 5 mg/kg/day (Mus musculus [10]): 48%; Activity (Mus musculus [11]): 86%; Activity (Rattus norvegicus [12]): inactive; inhibition in vivo at 5 mg/kg/day (Mus musculus [13]): 42%; inhibition in vivo at 5 mg/kg/day (Mus musculus [14]): 50%; Activity (Mus musculus [15]): 94%; Activity (Mus musculus [16]): 83%; Activity (Rattus norvegicus [17]): 50%; IC50 (Estrogen receptor beta): 1500 nM; inhibition in vivo at 5 mg/kg/day (Mus musculus [18]): 59%; Activity (Mus musculus [19]): 65%; Activity (Rattus norvegicus [20]): inactive; IC50 (Estrogen receptor): 2430 nM; Fold change (Mus musculus [21]): 1 |
| 119 nM | 38 nM | COc1ccccc1C(c1cccc2ccccc12)C(C)(C#N)C(=O)OC(C)(C)C (configuration not stated) |  | 94% | 24% | Stability (Plasma [22]): 0%; Stability (Plasma [23]): 32% |
| 23 nM | 84 nM | COc1ccccc1[C@H](c1cccc2ccccc12)[C@@](C)(C#N)C(=O)N1CCN(c2cccc(Cl)c2C)CC1 |  | 99% | 41% | inhibition in vivo at 5 mg/kg/day (Mus musculus [10]): 24%; Activity (Mus musculus [11]): 41%; inhibition in vivo at 5 mg/kg/day (Mus musculus [13]): 20%; inhibition in vivo at 5 mg/kg/day (Mus musculus [14]): 35%; Activity (Mus musculus [15]): 47%; Activity (Mus musculus [16]): 82%; inhibition in vivo at 5 mg/kg/day (Mus musculus [18]): 58%; Activity (Mus musculus [19]): 45%; Fold change (Mus musculus [21]): 1.1 |
|  |  | C#C[C@]1(O)CC[C@H]2[C@@H]3CCc4cc(O)ccc4[C@H]3CC[C@@]21C [ETHINYL ESTRADIOL] |  |  |  | inhibition in vivo at 5 mg/kg/day (Mus musculus [10]): 58%; inhibition in vivo at 5 mg/kg/day (Mus musculus [13]): 64%; inhibition in vivo at 5 mg/kg/day (Mus musculus [14]): 58%; inhibition in vivo at 5 mg/kg/day (Mus musculus [18]): 60%; Fold change (Mus musculus [21]): 4 |
|  |  | CCOC(=O)C(C#N)C(c1ccc(OC)cc1OC)c1cccc2ccccc12 (configuration not stated) | inactive |  |  | Activity (HAECT1 [4]): inactive |
